Assay results published in ChEMBL document CHEMBL4831485, “Design, synthesis and biological evaluation of exiguamine A analogues as IDO1 inhibitors” (Eur J Med Chem, 2021).
Blank lines part the entries; values can stand above or below the molecule they belong to.

Tests used:
[1] = biological target: Indoleamine 2,3-dioxygenase 1 (Homo sapiens, UniProt P14902); assay: Inhibition of human N-terminal His-tagged IDO1 expressed in Escherichia coli assessed as formation of N'-formyl-kynurenine using D-tryptophan as a substrate by methylene blue based assay
[2] = biological target: Tryptophan 2,3-dioxygenase (Homo sapiens) (UniProt P48775); assay: Inhibition of human N-terminal His-tagged TDO expressed in Escherichia coli assessed as formation of N'-formyl-kynurenine at 1 uM using D-tryptophan as a substrate by methylene blue based assay relative to control
HepG2 = assay: Cytotoxicity against human HepG2 cells assessed as reduction in cell viability measured after 72 hrs by MTT assay; assay type: cell-based; settings: HepG2, 72 h
U-87 MG = assay: Cytotoxicity against human U87 cells assessed as reduction in cell viability measured after 72 hrs by MTT assay; assay type: cell-based, U-87MG ATCC
HGC-27 = assay: Cytotoxicity against human HGC-27 cells assessed as reduction in cell viability measured after 72 hrs by MTT assay; assay type: cell-based; settings: HGC-27, 72 h
HCT-116 = assay: Cytotoxicity against human HCT-116 cells assessed as reduction in cell viability measured after 72 hrs by MTT assay; assay type: cell-based; settings: HCT-116, 72 h
MCF7 = assay: Cytotoxicity against human MCF7 cells assessed as reduction in cell viability measured after 72 hrs by MTT assay; assay type: cell-based; settings: MCF7, 72 h

Tryptophan 2,3-dioxygenase (Homo sapiens), sequence (P48775 whole entry, looked up): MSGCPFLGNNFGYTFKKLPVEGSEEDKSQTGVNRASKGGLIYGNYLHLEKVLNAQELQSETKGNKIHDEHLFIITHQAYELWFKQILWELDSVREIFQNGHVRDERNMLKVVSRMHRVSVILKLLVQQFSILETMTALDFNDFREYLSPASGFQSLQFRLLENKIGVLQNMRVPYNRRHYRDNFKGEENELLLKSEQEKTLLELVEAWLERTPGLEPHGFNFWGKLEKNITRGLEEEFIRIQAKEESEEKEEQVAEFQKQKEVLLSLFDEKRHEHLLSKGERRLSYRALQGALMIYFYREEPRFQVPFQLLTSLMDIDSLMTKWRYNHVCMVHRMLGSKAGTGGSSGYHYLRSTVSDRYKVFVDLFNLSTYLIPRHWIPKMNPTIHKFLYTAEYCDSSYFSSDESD
Indoleamine 2,3-dioxygenase 1, sequence (P14902 whole entry): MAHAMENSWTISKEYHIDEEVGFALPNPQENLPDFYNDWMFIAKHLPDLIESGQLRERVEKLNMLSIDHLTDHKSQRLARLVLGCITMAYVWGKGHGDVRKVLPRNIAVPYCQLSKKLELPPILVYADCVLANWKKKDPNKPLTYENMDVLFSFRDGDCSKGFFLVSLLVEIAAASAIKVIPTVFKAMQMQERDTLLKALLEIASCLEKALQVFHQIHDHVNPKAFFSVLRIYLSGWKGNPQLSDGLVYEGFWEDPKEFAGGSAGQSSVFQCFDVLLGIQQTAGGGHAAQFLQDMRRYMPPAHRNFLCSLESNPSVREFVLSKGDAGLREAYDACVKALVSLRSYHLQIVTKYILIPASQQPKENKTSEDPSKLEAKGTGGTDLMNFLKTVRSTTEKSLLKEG

IC50 [1]: 578 nM
Structure (SMILES): COc1ccc(C)c2c1CC1(C(=O)N(C)C(=O)N1C)C1=C2C(=O)c2[nH]cc(CCNC(=O)/C=C/c3ccccc3)c2C1=O (stereo not given)

IC50 [1]: 181 nM
Structure (SMILES): COc1ccc(C)c2c1CC1(C(=O)N(C)C(=O)N1C)C1=C2C(=O)c2[nH]cc(CCNCc3cc(OC)c(OC)c(OC)c3)c2C1=O (stereo not given)

IC50 [1]: 220 nM
Structure (SMILES): COc1ccc(C)c2c1CC1(C(=O)N(C)C(=O)N1C)C1=C2C(=O)c2[nH]cc(CCNC(=O)c3cccs3)c2C1=O (stereo not given)

IC50 [1]: > 42000 nM
Structure (SMILES): COc1ccc(C)c2c1CC1(C(=O)N(C)C(=O)N1C)C1=C2C(=O)c2[nH]cc(CCNC(=O)c3cc4ccccc4s3)c2C1=O (stereo not given)

IC50 [1]: > 42000 nM
Structure (SMILES): COc1ccc(C)c2c1CC1(C(=O)N(C)C(=O)N1C)C1=C2C(=O)c2[nH]cc(CCNC(=O)c3cc4ccccc4[nH]3)c2C1=O (stereo not given)

IC50 [1]: 210 nM
inhibition [2]: 0%
Structure (SMILES): COc1ccc(C)c2c1CC1(C(=O)N(C)C(=O)N1C)C1=C2C(=O)c2[nH]cc(CCNC(=O)c3ccccc3)c2C1=O (stereo not given)
IC50 (HepG2): 3530 nM
IC50 (U-87 MG): 2740 nM
IC50 (HGC-27): 4000 nM
IC50 (HCT-116): 1700 nM
IC50 (MCF7): 5350 nM

IC50 [1]: 234 nM
Structure (SMILES): COc1ccc(C)c2c1CC1(C(=O)N(C)C(=O)N1C)C1=C2C(=O)c2[nH]cc(CCNCc3ccc(C)c(C)c3)c2C1=O (stereo not given)

IC50 [1]: 631 nM
Structure (SMILES): COc1ccc(C)c2c1CC1(C(=O)N(C)C(=O)N1C)C1=C2C(=O)c2[nH]cc(CCNC(=O)c3cc4ccccc4o3)c2C1=O (stereo not given)

IC50 [1]: > 42000 nM
Structure (SMILES): COc1ccc(C)c2c1CC1(C(=O)N(C)C(=O)N1C)C1=C2C(=O)c2[nH]cc(CCNC(=O)c3ccc4ccccc4n3)c2C1=O (stereo not given)

IC50 [1]: 467 nM
Structure (SMILES): COc1ccc(C)c2c1CC1(C(=O)N(C)C(=O)N1C)C1=C2C(=O)c2[nH]cc(CCNC(=O)OC(C)(C)C)c2C1=O (stereo not given)

IC50 [1]: 430 nM
Structure (SMILES): COc1ccc(C)c2c1CC1(C(=O)N(C)C(=O)N1C)C1=C2C(=O)c2[nH]cc(CCNC(=O)c3ccccn3)c2C1=O (stereo not given)

IC50 [1]: 2500 nM
Structure (SMILES): COc1ccc(C(=O)NCCc2c[nH]c3c2C(=O)C2=C(C3=O)c3c(C)ccc(OC)c3CC23C(=O)N(C)C(=O)N3C)cc1 (stereo not given)

IC50 [1]: 252 nM
Structure (SMILES): COC(=O)c1cccc(CNCCc2c[nH]c3c2C(=O)C2=C(C3=O)c3c(C)ccc(OC)c3CC23C(=O)N(C)C(=O)N3C)c1 (stereo not given)

IC50 [1]: 330 nM
Structure (SMILES): COc1ccc(CC(=O)NCCc2c[nH]c3c2C(=O)C2=C(C3=O)c3c(C)ccc(OC)c3CC23C(=O)N(C)C(=O)N3C)cc1 (stereo not given)

IC50 [1]: > 42000 nM
Structure (SMILES): COc1ccc(C)c2c1CC1(C(=O)N(C)C(=O)N1C)C1=C2C(=O)c2[nH]cc(CCNC(=O)c3ccc(Cl)cc3)c2C1=O (stereo not given)

IC50 [1]: 248 nM
Structure (SMILES): COc1ccc(C)c2c1CC1(C(=O)N(C)C(=O)N1C)C1=C2C(=O)c2[nH]cc(CCNCc3cccc(OC)c3OC)c2C1=O (stereo not given)

IC50 [1]: 213 nM
Structure (SMILES): COc1ccc(C)c2c1CC1(C(=O)N(C)C(=O)N1C)C1=C2C(=O)c2[nH]cc(CCNCc3cc(F)cc(F)c3)c2C1=O (stereo not given)

IC50 [1]: > 42000 nM
Structure (SMILES): COc1ccc(C)c2c1CC1(C(=O)N(C)C(=O)N1C)C1=C2C(=O)c2[nH]cc(CCNC(=O)c3ccc(C(C)C)cc3)c2C1=O (stereo not given)

IC50 [1]: > 42000 nM
Structure (SMILES): COc1ccc(C)c2c1CC1(C(=O)N(C)C(=O)N1C)C1=C2C(=O)c2[nH]cc(CCNC(=O)c3cc(OC)c(OC)c(OC)c3)c2C1=O (stereo not given)

IC50 [1]: 209 nM
inhibition [2]: 0%
Structure (SMILES): COc1ccc(C)c2c1CC1(C(=O)N(C)C(=O)N1C)C1=C2C(=O)c2[nH]cc(CCNC(=O)c3ccco3)c2C1=O (stereo not given)
IC50 (HepG2): 4180 nM
IC50 (U-87 MG): 2590 nM
IC50 (HGC-27): 3160 nM
IC50 (HCT-116): 2150 nM
IC50 (MCF7): 6910 nM

IC50 [1]: 370 nM
Structure (SMILES): COc1ccc(C)c2c1CC1(C(=O)N(C)C(=O)N1C)C1=C2C(=O)c2[nH]cc(CCNCc3cccs3)c2C1=O (stereo not given)

IC50 [1]: 173 nM
Structure (SMILES): COc1ccc(C)c2c1CC1(C(=O)N(C)C(=O)N1C)C1=C2C(=O)c2[nH]cc(CCNCc3ccccc3)c2C1=O (stereo not given)

IC50 [1]: > 42000 nM
Structure (SMILES): COc1cc(/C=C/C(=O)NCCc2c[nH]c3c2C(=O)C2=C(C3=O)c3c(C)ccc(OC)c3CC23C(=O)N(C)C(=O)N3C)cc(OC)c1 (stereo not given)

IC50 [1]: 159 nM
Structure (SMILES): COc1ccc(C)c2c1CC1(C(=O)N(C)C(=O)N1C)C1=C2C(=O)c2[nH]cc(CCNCCc3ccccc3)c2C1=O (stereo not given)

IC50 [1]: 65.3 nM
inhibition [2]: 0%
Structure (SMILES): COc1ccc(C)c2c1CC1(C(=O)N(C)C(=O)N1C)C1=C2C(=O)c2[nH]cc(CCNCc3ccccc3Br)c2C1=O (stereo not given)
IC50 (HepG2): 1560 nM
IC50 (U-87 MG): 1220 nM
IC50 (HGC-27): 2080 nM
IC50 (HCT-116): 1350 nM
IC50 (MCF7): 1520 nM

IC50 [1]: 250 nM
Structure (SMILES): COc1ccc(C)c2c1CC1(C(=O)N(C)C(=O)N1C)C1=C2C(=O)c2[nH]cc(CCNC(=O)c3ccccc3Br)c2C1=O (stereo not given)

IC50 [1]: > 42000 nM
Structure (SMILES): COc1ccc(C)c2c1CC1(C(=O)N(C)C(=O)N1C)C1=C2C(=O)c2[nH]cc(CCNC(=O)c3cccc(C(F)(F)F)c3)c2C1=O (stereo not given)

IC50 [1]: 271 nM
Structure (SMILES): COc1ccc(C)c2c1CC1(C(=O)N(C)C(=O)N1C)C1=C2C(=O)c2[nH]cc(CCNCc3ccc4ccccc4c3)c2C1=O (stereo not given)

IC50 [1]: > 42000 nM
Structure (SMILES): COc1ccc(C)c2c1CC1(C(=O)N(C)C(=O)N1C)C1=C2C(=O)c2[nH]cc(CCNC(=O)/C=C/c3cccc(C(F)(F)F)c3)c2C1=O (stereo not given)

IC50 [1]: 621 nM
Structure (SMILES): COc1ccc(C)c2c1CC1(C(=O)N(C)C(=O)N1C)C1=C2C(=O)c2[nH]cc(CCNCc3cc4ccccc4s3)c2C1=O (stereo not given)

IC50 [1]: 242 nM
Structure (SMILES): COc1ccc(C)c2c1CC1(C(=O)N(C)C(=O)N1C)C1=C2C(=O)c2[nH]cc(CCNCc3ccccc3C)c2C1=O (stereo not given)

IC50 [1]: 101 nM
inhibition [2]: 0%
Structure (SMILES): COc1ccc(C)c2c1CC1(C(=O)N(C)C(=O)N1C)C1=C2C(=O)c2[nH]cc(CCN(C)C)c2C1=O (stereo not given)
IC50 (HepG2): > 50000 nM
IC50 (U-87 MG): > 50000 nM
IC50 (HGC-27): > 50000 nM
IC50 (HCT-116): > 50000 nM
IC50 (MCF7): > 50000 nM

IC50 [1]: 150 nM
inhibition [2]: 0%
Structure (SMILES): COc1ccc(C)c2c1CC1(C(=O)N(C)C(=O)N1C)C1=C2C(=O)c2[nH]cc(CCNCc3cccc(Cl)c3)c2C1=O (stereo not given)
IC50 (HepG2): > 50000 nM
IC50 (U-87 MG): > 50000 nM
IC50 (HGC-27): > 50000 nM
IC50 (HCT-116): > 50000 nM
IC50 (MCF7): > 50000 nM

IC50 [1]: > 42000 nM
Structure (SMILES): COc1ccc(C)c2c1CC1(C(=O)N(C)C(=O)N1C)C1=C2C(=O)c2[nH]cc(CCNC(=O)c3ccc4ccccc4c3)c2C1=O (stereo not given)

IC50 [1]: 954 nM
Structure (SMILES): COc1ccc(C)c2c1CC1(C(=O)N(C)C(=O)N1C)C1=C2C(=O)c2[nH]cc(CCNCc3ccc(-c4ccccc4)cc3)c2C1=O (stereo not given)

IC50 [1]: 79.3 nM
inhibition [2]: 0%
Structure (SMILES): COc1ccc(C)c2c1CC1(C(=O)N(C)C(=O)N1C)C1=C2C(=O)c2[nH]cc(CCNCC(C)(C)C)c2C1=O (stereo not given)
IC50 (HepG2): > 50000 nM
IC50 (U-87 MG): > 50000 nM
IC50 (HGC-27): > 50000 nM
IC50 (HCT-116): > 50000 nM
IC50 (MCF7): > 50000 nM

IC50 [1]: 265 nM
Structure (SMILES): COc1ccc(C)c2c1CC1(C(=O)N(C)C(=O)N1C)C1=C2C(=O)c2[nH]cc(CCNCc3ccc(C(C)(C)C)cc3)c2C1=O (stereo not given)

IC50 [1]: 441 nM
Structure (SMILES): COc1ccc(C)c2c1CC1(C(=O)N(C)C(=O)N1C)C1=C2C(=O)c2[nH]cc(CCNC(=O)Cc3cccc(C(F)(F)F)c3)c2C1=O (stereo not given)

Structure (SMILES): NS(=O)(=O)NCCNc1nonc1/C(=N/O)Nc1ccc(F)c(Br)c1 [EPACADOSTAT]
IC50 (HepG2): > 50000 nM
IC50 (U-87 MG): > 50000 nM
IC50 (HGC-27): > 50000 nM
IC50 (HCT-116): > 50000 nM
IC50 (MCF7): > 50000 nM

IC50 [1]: 161 nM
Structure (SMILES): COc1ccc(C)c2c1CC1(C(=O)N(C)C(=O)N1C)C1=C2C(=O)c2[nH]cc(CCNCc3ccc(C(F)(F)F)cc3)c2C1=O (stereo not given)
